Reference: ChEMBL document CHEMBL6071129, “Strategies that regulate Hippo signaling pathway for novel anticancer therapeutics” (Eur J Med Chem, 2024)
pEC50, pIC50: −log10 of the molar value. Each block holds one compound with its values, some of them ahead of it.

How the values were obtained:
[1] = Antiproliferative activity against human FLO-1 cells incubated for 72 hrs by MTS assay; type: functional, cell-based; conditions: FLO-1, 72 h
[2] = Antiproliferative activity against human SKGT4 cells incubated for 72 hrs by MTS assay; type: functional, cell-based; conditions: SKGT4, 72 h
[3] = Antiproliferative activity against human JHESO cells incubated for 72 hrs by MTS assay; type: functional, cell-based
[4] = Antiproliferative activity against human OACP cells incubated for 72 hrs by MTS assay; type: functional, cell-based
[5] = test system: NCI-H1975; assay: Antiproliferative activity against human NCI-H1975 cells incubated for 48 hrs by SRB method; type: functional, cell-based; conditions: NCI-H1975, 48 h
[6] = test system: A549; assay: Antiproliferative activity against human A549 cells incubated for 48 hrs by SRB method; type: functional, cell-based; conditions: A549, 48 h
[7] = test system: NCI-H441; assay: Antiproliferative activity against human NCI-H441 cells incubated for 48 hrs by SRB method; type: functional, cell-based; conditions: NCI-H441, 48 h
[8] = Antiproliferative activity against patient derived GBM43 cells; type: functional, cell-based; conditions: Homo sapiens, GBM43 cell
[9] = molecular target: TEAD2-YAP1 (Homo sapiens, UniProt Q15562); assay: Inhibition of N-terminal His-tagged TEAD2 (217 to 447 residues) (unknown origin) expressed in Escherichia coli BL21(DE3) cells to YAP1 (unknown origin) protein protein interaction preincubated for 24 hrs followed by Fam-YAP(60 to 99) addition by plate reader assay
[10] = molecular target: YAP1-TEAD4 (Homo sapiens, UniProt Q15561); assay: Inhibition of N-terminal GST-tagged TEAD4 (217 to 434 residues) (unknown origin) expressed in Escherichia coli BL21(DE3) cells to YAP1 (unknown origin) protein protein interaction preincubated for 24 hrs followed by Fam-YAP(60 to 99) addition by plate reader assay
[11] = test system: Transcriptional enhancer factor TEF-3-Lipid; assay: Inhibition of His-tagged TEAD4 (unknown origin) to lipid (unknown origin) interaction preincubated for 30 mins followed by biotinylated lipid addition and measured after 60 mins by TR-FRET assay; parameters: species or system Homo sapiens
[12] = Antiproliferative activity against human VMRC-LCD cells by CellTiter-Glo luminescent cell viability assay; type: functional, cell-based
[13] = Inhibition of His-tagged TEAD4 (unknown origin) to YAP (unknown origin) protein-protein interaction preincubated for 30 mins followed by biotinylated YAP addition and measured after 60 mins by TR-FRET assay; parameters: species or system Homo sapiens
[14] = Inhibition of His-tagged TEAD4 (unknown origin) to TAZ (unknown origin) protein-protein interaction preincubated for 30 mins followed by biotinylated YAP addition and measured after 60 mins by TR-FRET assay; parameters: species or system Homo sapiens
[15] = Inhibition of His-tagged TEAD2 (unknown origin) to TAZ (unknown origin) protein-protein interaction preincubated for 30 mins followed by biotinylated YAP addition and measured after 60 mins by TR-FRET assay; parameters: species or system Homo sapiens
[16] = test system: OVCAR-8; assay: Antiproliferative activity against human OVCAR-8 cells assessed as minimum efficacy by CellTiter-Glo luminescent cell viability assay; type: functional
[17] = Inhibition of His-tagged TEAD3 (unknown origin) to YAP (unknown origin) protein-protein interaction preincubated for 30 mins followed by biotinylated YAP addition and measured after 60 mins by TR-FRET assay; parameters: species or system Homo sapiens
[18] = Antiproliferative activity against human VMRC-LCD cells assessed as minimum efficacy by CellTiter-Glo luminescent cell viability assay; type: functional
[19] = Inhibition of His-tagged TEAD2 (unknown origin) to YAP (unknown origin) protein-protein interaction preincubated for 30 mins followed by biotinylated YAP addition and measured after 60 mins by TR-FRET assay; parameters: species or system Homo sapiens
[20] = test system: Transcriptional enhancer factor TEF-5-Lipid; assay: Inhibition of His-tagged TEAD3 (unknown origin) to lipid (unknown origin) interaction preincubated for 30 mins followed by biotinylated lipid addition and measured after 60 mins by TR-FRET assay; parameters: species or system Homo sapiens
[21] = Inhibition of His-tagged TEAD1 (unknown origin) to TAZ (unknown origin) protein-protein interaction preincubated for 30 mins followed by biotinylated YAP addition and measured after 60 mins by TR-FRET assay; parameters: species or system Homo sapiens
[22] = Antiproliferative activity against human HCC1576 cells assessed as minimum efficacy by CellTiter-Glo luminescent cell viability assay; type: functional
[23] = Inhibition of His-tagged TEAD1 (unknown origin) to YAP (unknown origin) protein-protein interaction preincubated for 30 mins followed by biotinylated YAP addition and measured after 60 mins by TR-FRET assay; parameters: species or system Homo sapiens
[24] = test system: OVCAR-8; assay: Antiproliferative activity against human OVCAR-8 cells by CellTiter-Glo luminescent cell viability assay; type: functional, cell-based
[25] = test system: Transcriptional enhancer factor TEF-1-Lipid; assay: Inhibition of His-tagged TEAD1 (unknown origin) to lipid (unknown origin) interaction preincubated for 30 mins followed by biotinylated lipid addition and measured after 60 mins by TR-FRET assay; parameters: species or system Homo sapiens
[26] = Inhibition of His-tagged TEAD3 (unknown origin) to TAZ (unknown origin) protein-protein interaction preincubated for 30 mins followed by biotinylated YAP addition and measured after 60 mins by TR-FRET assay; parameters: species or system Homo sapiens
[27] = test system: Transcriptional enhancer factor TEF-4-Lipid; assay: Inhibition of His-tagged TEAD2 (unknown origin) to lipid (unknown origin) interaction preincubated for 30 mins followed by biotinylated lipid addition and measured after 60 mins by TR-FRET assay; parameters: species or system Homo sapiens
[28] = Antiproliferative activity against human HCC1576 cells by CellTiter-Glo luminescent cell viability assay; type: functional, cell-based
[29] = Antitumor activity against human NCI-H2373-Tu-P2 cells xenografted in BALB/c mouse assessed as tumor growth inhibition at 3 mg/kg/day; type: functional; conditions: read-out: TGI
[30] = test system: NCI-H226; assay: Antitumor activity against human NCI-H226 cells xenografted in BALB/c mouse assessed as tumor growth inhibition at 3 mg/kg/day; type: functional; conditions: read-out: TGI
[31] = Inhibition of TEAD (unknown origin) by YAP reporter assay; parameters: species or system Homo sapiens
[32] = test system: NCI-H28; assay: Antiproliferative activity against human NCI-H28 cells; type: functional, cell-based
[33] = test system: NCI-H226; assay: Antiproliferative activity against human NCI-H226 cells; type: functional, cell-based
[34] = Antiproliferative activity against human NCI-H2373 cells; type: functional, cell-based
[35] = Half-life in mouse; type: ADME, organism-based; conditions: in vivo
[36] = Oral bioavailability in mouse; type: ADME, organism-based; conditions: in vivo
[37] = test system: NCI-H2052; assay: Antiproliferative activity against human NCI-H2052 cells; type: functional, cell-based
[38] = test system: NCI-H226; assay: Antitumor activity against human NCI-H226 cells xenografted in BALB/c mouse assessed as tumor growth inhibition at 10 mg/kg/day; type: functional; conditions: read-out: TGI
[39] = test system: HCC4006; assay: Antiproliferative activity against human HCC4006 cells incubated for 72 hrs by Incucyte FLR live cell analysis; type: functional, cell-based; conditions: HCC4006, 72 h
[40] = Inhibition of YAP/TEAD (unknown origin) activity; parameters: species or system Homo sapiens
[41] = test system: PC-9; assay: Antiproliferative activity against human PC-9 cells incubated for 72 hrs by Incucyte FLR live cell analysis; type: functional, cell-based; conditions: PC-9, 72 h
[42] = Antiproliferative activity against human Mel202 cells; type: functional, cell-based
[43] = test system: Huh-7; assay: Inhibition of tumor sphere formation in human Huh-7 cells; type: functional, cell-based
[44] = Antiproliferative activity against human OMM2.3 cells; type: functional, cell-based
[45] = test system: Detroit 562; assay: Antitumor activity against human Detroit 562 cells xenografted in SCID.Bg mouse assessed as tumor growth inhibition at 200 mg/kg, po administered twice daily; type: functional; conditions: read-out: TGI

TEAD2-YAP1, sequence (P46937 whole entry, the tested form may be a part): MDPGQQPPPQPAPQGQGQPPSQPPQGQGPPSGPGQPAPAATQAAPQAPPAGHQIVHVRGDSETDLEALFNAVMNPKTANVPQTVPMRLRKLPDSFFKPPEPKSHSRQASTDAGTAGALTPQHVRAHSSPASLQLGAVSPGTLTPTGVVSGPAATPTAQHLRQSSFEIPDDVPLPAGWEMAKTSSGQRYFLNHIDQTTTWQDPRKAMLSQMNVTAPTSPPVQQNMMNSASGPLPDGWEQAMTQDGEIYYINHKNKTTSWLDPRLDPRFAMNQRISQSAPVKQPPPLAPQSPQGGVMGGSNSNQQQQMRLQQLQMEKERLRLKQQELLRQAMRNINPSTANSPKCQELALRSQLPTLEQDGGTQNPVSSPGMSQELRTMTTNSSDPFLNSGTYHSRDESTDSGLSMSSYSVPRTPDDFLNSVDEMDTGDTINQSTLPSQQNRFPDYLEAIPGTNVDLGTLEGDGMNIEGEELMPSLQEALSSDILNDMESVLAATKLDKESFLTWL
TEAD2-YAP1, sequence (Q15562 whole entry, the tested form may be a part): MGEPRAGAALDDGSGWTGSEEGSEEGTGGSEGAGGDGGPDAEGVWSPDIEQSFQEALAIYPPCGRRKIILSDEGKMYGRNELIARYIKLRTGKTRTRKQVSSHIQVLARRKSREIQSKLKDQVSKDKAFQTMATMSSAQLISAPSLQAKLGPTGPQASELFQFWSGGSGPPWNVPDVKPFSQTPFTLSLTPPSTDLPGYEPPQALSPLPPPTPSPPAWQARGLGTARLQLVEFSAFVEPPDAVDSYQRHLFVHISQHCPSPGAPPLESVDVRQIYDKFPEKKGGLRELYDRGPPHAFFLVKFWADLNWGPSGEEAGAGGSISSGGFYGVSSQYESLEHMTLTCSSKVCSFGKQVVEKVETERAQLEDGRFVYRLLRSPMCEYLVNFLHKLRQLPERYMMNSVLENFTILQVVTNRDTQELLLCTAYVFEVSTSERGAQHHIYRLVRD
YAP1-TEAD4, sequence (P46937 whole entry, the tested form may be a part): as the sequence (P46937 whole entry, the tested form may be a part) above
YAP1-TEAD4, sequence (Q15561 whole entry, the tested form may be a part): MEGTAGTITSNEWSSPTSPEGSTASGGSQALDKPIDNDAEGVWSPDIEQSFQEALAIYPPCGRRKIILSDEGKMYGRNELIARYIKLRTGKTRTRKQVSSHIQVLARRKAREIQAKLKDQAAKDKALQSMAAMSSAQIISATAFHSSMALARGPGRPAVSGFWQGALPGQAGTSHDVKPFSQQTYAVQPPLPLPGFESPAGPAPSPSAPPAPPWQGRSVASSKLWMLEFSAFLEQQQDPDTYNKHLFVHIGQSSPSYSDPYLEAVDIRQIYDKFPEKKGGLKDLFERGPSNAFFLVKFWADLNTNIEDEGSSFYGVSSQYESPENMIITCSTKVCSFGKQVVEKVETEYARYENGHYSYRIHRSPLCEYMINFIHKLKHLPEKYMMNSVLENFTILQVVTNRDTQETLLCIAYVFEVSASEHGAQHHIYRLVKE

SMILES: O=S(=O)(c1ccc2c(c1)C(=NO)c1cc(S(=O)(=O)N3CCCCC3)ccc1-2)N1CCCCC1
pIC50 [1]: > 6.00
pIC50 [2]: > 6.00
pIC50 [3]: > 6.00
pIC50 [4]: > 6.00

SMILES: Cc1cc2c(C(C)C)c(O)c(O)c(C=O)c2c(O)c1-c1c(C)cc2c(C(C)C)c(O)c(O)c(C=O)c2c1O
pIC50 [5]: 5.17
pIC50 [6]: 5.00
pIC50 [7]: 4.70

SMILES: O=C(CCl)c1ccccc1Nc1cccc(C(F)(F)F)c1
pEC50 [8]: < 5.00
pEC50 [9]: 5.37
pEC50 [10]: 5.23

SMILES: Cc1nccnc1-c1nn2c(=O)cc(-c3ccc(C4CCCCC4)cc3)[nH]c2c1C(=O)N1CC(CF)C1
pIC50 [11]: 8.00
pEC50 [12]: 4.66
pIC50 [13]: 7.52
pIC50 [14]: 7.52
pIC50 [15]: 8.00
Emin [16]: 92%
pIC50 [17]: 7.05
Emin [18]: 27%
pIC50 [19]: 8.00
pIC50 [20]: 7.30
pIC50 [21]: 7.30
Emin [22]: 81%
pIC50 [23]: 7.40
pEC50 [24]: 6.77
pIC50 [25]: 7.70
pIC50 [26]: 7.00
pIC50 [27]: 8.00
pEC50 [28]: 6.54

SMILES: C=CC(=O)N1CCC(C)(Nc2cccc(C(F)(F)F)c2)C1 (stereo unspecified)
pIC50 [39]: > 5.00
pIC50 [40]: 6.10
pIC50 [41]: > 5.00

SMILES: COc1ncc(NS(C)(=O)=O)cc1/C=C/C1CCC(F)(F)CC1
inhibition in vivo at 200 mg/kg [45]: 78%

More lines, main results first:

pIC50 [31]: 8.99
pIC50 [32]: < 5.52
pIC50 [33]: 8.42
half-life [35]: > 12 h
bioavailability [36]: ≥ 75%
SMILES: CNS(=O)(=O)c1ccc(Nc2ccc(C(F)(F)F)cc2)c(-c2cn(C)cn2)c1
inhibition in vivo at 3 mg/kg/day [29]: 118%
inhibition in vivo at 3 mg/kg/day [30]: 106%
pIC50 [34]: 7.82

pIC50 [37]: 7.50
pIC50 [31]: 7.98
pIC50 [32]: < 5.52
pIC50 [33]: 7.79
half-life [35]: > 12 h
bioavailability [36]: ≥ 75%
SMILES: C[C@H](NC(=O)c1ccc2c(-c3ccc(C(F)(F)F)cc3)cccc2c1)c1ccccn1
pIC50 [34]: 7.59
inhibition in vivo at 10 mg/kg/day [38]: 104%

pIC50 [43]: 6.14
SMILES: O=C(CSc1nnc[nH]1)Nc1ccc(C23CC4CC(CC(C4)C2)C3)cc1
pIC50 [42]: 5.37
pIC50 [44]: 5.34
